{"source": "ChEMBL document CHEMBL1201862", "about": "“PubChem BioAssay data set” (2004)", "assay_in_all_cases": "DTP human tumour cell line panel, 48 h", "key": {"OVCAR-3": {"test_system": "OVCAR-3"}, "HCT-15": {"test_system": "HCT-15"}, "IGROV-1": {"test_system": "IGROV-1"}, "SK-MEL-28": {"test_system": "SK-MEL-28"}, "HCC 2998": {"test_system": "HCC 2998"}, "T47D": {"test_system": "T47D"}, "786-0": {"test_system": "786-0"}, "MDA-MB-435": {"test_system": "MDA-MB-435"}, "OVCAR-5": {"test_system": "OVCAR-5"}, "UO-31": {"test_system": "UO-31"}, "NCI-H460": {"test_system": "NCI-H460"}, "SF-268": {"test_system": "SF-268"}, "U-251": {"test_system": "U-251"}, "PC-3": {"test_system": "PC-3"}, "EKVX": {"test_system": "EKVX"}, "SW-620": {"test_system": "SW-620"}, "SNB-75": {"test_system": "SNB-75"}, "UACC-257": {"test_system": "UACC-257"}, "BT-549": {"test_system": "BT-549"}, "A549": {"test_system": "A549"}, "SK-OV-3": {"test_system": "SK-OV-3"}, "SNB-19": {"test_system": "SNB-19"}, "CAKI-1": {"test_system": "CAKI-1"}, "MDA-MB-231": {"test_system": "MDA-MB-231"}, "RPMI-8226": {"test_system": "RPMI-8226"}, "SK-MEL-5": {"test_system": "SK-MEL-5"}, "K562": {"test_system": "K562"}, "SR": {"test_system": "SR"}, "MOLT-4": {"test_system": "MOLT-4"}, "LOX IMVI": {"test_system": "LOX IMVI"}, "TK-10": {"test_system": "TK-10"}, "ACHN": {"test_system": "ACHN"}, "A498": {"test_system": "A498"}, "DU-145": {"test_system": "DU-145"}, "NCI-H23": {"test_system": "NCI-H23"}, "MCF7": {"test_system": "MCF7"}, "NCI/ADR-RES": {"test_system": "NCI/ADR-RES"}, "OVCAR-8": {"test_system": "OVCAR-8"}, "SF-539": {"test_system": "SF-539"}, "HL-60": {"test_system": "HL-60"}, "Malme-3M": {"test_system": "Malme-3M"}, "HOP-92": {"test_system": "HOP-92"}, "HT-29": {"test_system": "HT-29"}, "KM12": {"test_system": "KM12"}, "RXF 393": {"test_system": "RXF 393"}, "HCT-116": {"test_system": "HCT-116"}, "SF-295": {"test_system": "SF-295"}, "OVCAR-4": {"test_system": "OVCAR-4"}, "NCI-H226": {"test_system": "NCI-H226"}, "SK-MEL-2": {"test_system": "SK-MEL-2"}, "CCRF-CEM": {"test_system": "CCRF-CEM"}, "MDA-N": {"test_system": "MDA-N"}, "COLO 205": {"test_system": "COLO 205"}, "SN12C": {"test_system": "SN12C"}, "M14": {"test_system": "M14"}, "UACC-62": {"test_system": "UACC-62"}, "NCI-H522": {"test_system": "NCI-H522"}, "Hs-578T": {"test_system": "Hs-578T"}, "HOP-62": {"test_system": "HOP-62"}}, "note": "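Values below derive from 48-hour exposures of cells grown in 96-well plates, with endpoints linearly interpolated between the two concentrations bracketing the appropriate inhibition level. GI50 marks 50% less growth.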 Calls of active or inactive are those of the source. Cut-off read from the data, not from the text of the source: active = GI50 up to about 1.1 µM and inactive = higher.", "data": [{"compound": "COC(=O)C1C(O)CCC2CN3CCc4c([nH]c5ccccc45)C3CC21", "note": "(centres undefined)", "values": [{"measurement": "GI50", "setting": "OVCAR-3", "value": "> 100 µM (inactive)"}, {"measurement": "GI50", "setting": "HCT-15", "value": "> 100", "unit": "µM"}, {"measurement": "GI50", "setting": "IGROV-1", "value": "> 100 µM (inactive)"}, {"measurement": "GI50", "setting": "SK-MEL-28", "value": "76 µM (inactive)"}, {"measurement": "GI50", "setting": "HCC 2998", "value": "59.4 µM (inactive)"}, {"measurement": "GI50", "setting": "T47D", "value": "> 100 µM (inactive)"}, {"measurement": "GI50", "setting": "786-0", "value": "> 100 µM (inactive)"}, {"measurement": "GI50", "setting": "MDA-MB-435", "value": "> 100 µM (inactive)"}, {"measurement": "GI50", "setting": "OVCAR-5", "value": "> 100 µM (inactive)"}, {"measurement": "GI50", "setting": "UO-31", "value": "> 100 µM (inactive)"}, {"measurement": "GI50", "setting": "NCI-H460", "value": "> 100 µM (inactive)"}, {"measurement": "GI50", "setting": "SF-268", "value": "> 100 µM (inactive)"}, {"measurement": "GI50", "setting": "U-251", "value": "> 100 µM (inactive)"}, {"measurement": "GI50", "setting": "PC-3", "value": "> 100 µM (inactive)"}, {"measurement": "GI50", "setting": "EKVX", "value": "> 100 µM (inactive)"}, {"measurement": "GI50", "setting": "SW-620", "value": "> 100 µM (inactive)"}, {"measurement": "GI50", "setting": "SNB-75", "value": "> 100 µM (inactive)"}, {"measurement": "GI50", "setting": "UACC-257", "value": "> 100 µM (inactive)"}, {"measurement": "GI50", "setting": "BT-549", "value": "> 100 µM (inactive)"}, {"measurement": "GI50", "setting": "A549", "value": "> 100 µM (inactive)"}, {"measurement": "GI50", "setting": "SK-OV-3", "value": "> 100 µM (inactive)"}]}, {"compound": "COc1cc(OC)c(OC)cc1/C=N/N=C(\\N)NO", "values": [{"measurement": "GI50", "setting": "OVCAR-3", "value": "> 100 µM (inactive)"}, {"measurement": "GI50", "setting": "HCT-15", "value": "> 100", "unit": "µM"}, {"measurement": "GI50", "setting": "SNB-19", "value": "> 100 µM (inactive)"}, {"measurement": "GI50", "setting": "IGROV-1", "value": "> 100 µM (inactive)"}, {"measurement": "GI50", "setting": "CAKI-1", "value": "> 100 µM (inactive)"}, {"measurement": "GI50", "setting": "MDA-MB-231", "value": "> 100 µM (inactive)"}, {"measurement": "GI50", "setting": "RPMI-8226", "value": "68.9 µM (inactive)"}, {"measurement": "GI50", "setting": "SK-MEL-28", "value": "> 100 µM (inactive)"}, {"measurement": "GI50", "setting": "HCC 2998", "value": "> 100 µM (inactive)"}, {"measurement": "GI50", "setting": "SK-MEL-5", "value": "> 100 µM (inactive)"}, {"measurement": "GI50", "setting": "K562", "value": "88.7 µM (inactive)"}, {"measurement": "GI50", "setting": "SR", "value": "> 100 µM (inactive)"}, {"measurement": "GI50", "setting": "MOLT-4", "value": "> 100 µM (inactive)"}, {"measurement": "GI50", "setting": "LOX IMVI", "value": "> 100 µM (inactive)"}, {"measurement": "GI50", "setting": "TK-10", "value": "> 100 µM (inactive)"}, {"measurement": "GI50", "setting": "T47D", "value": "> 100 µM (inactive)"}, {"measurement": "GI50", "setting": "ACHN", "value": "56.2 µM (inactive)"}, {"measurement": "GI50", "setting": "786-0", "value": "> 100 µM (inactive)"}, {"measurement": "GI50", "setting": "MDA-MB-435", "value": "68.2 µM (inactive)"}, {"measurement": "GI50", "setting": "A498", "value": "> 100 µM (inactive)"}, {"measurement": "GI50", "setting": "DU-145", "value": "> 100 µM (inactive)"}, {"measurement": "GI50", "setting": "NCI-H23", "value": "> 100 µM (inactive)"}, {"measurement": "GI50", "setting": "MCF7", "value": "> 100 µM (inactive)"}, {"measurement": "GI50", "setting": "OVCAR-5", "value": "> 100 µM (inactive)"}, {"measurement": "GI50", "setting": "NCI/ADR-RES", "value": "> 100 µM (inactive)"}, {"measurement": "GI50", "setting": "OVCAR-8", "value": "> 100 µM (inactive)"}, {"measurement": "GI50", "setting": "SF-539", "value": "> 100 µM (inactive)"}, {"measurement": "GI50", "setting": "UO-31", "value": "> 100 µM (inactive)"}, {"measurement": "GI50", "setting": "HL-60", "value": "83.9 µM (inactive)"}, {"measurement": "GI50", "setting": "NCI-H460", "value": "> 100 µM (inactive)"}, {"measurement": "GI50", "setting": "SF-268", "value": "> 100 µM (inactive)"}, {"measurement": "GI50", "setting": "Malme-3M", "value": "> 100 µM (inactive)"}, {"measurement": "GI50", "setting": "U-251", "value": "> 100 µM (inactive)"}, {"measurement": "GI50", "setting": "PC-3", "value": "> 100 µM (inactive)"}, {"measurement": "GI50", "setting": "EKVX", "value": "> 100 µM (inactive)"}, {"measurement": "GI50", "setting": "HOP-92", "value": "77.6 µM (inactive)"}, {"measurement": "GI50", "setting": "HT-29", "value": "> 100 µM (inactive)"}, {"measurement": "GI50", "setting": "KM12", "value": "18.5 µM (inactive)"}, {"measurement": "GI50", "setting": "RXF 393", "value": "> 100 µM (inactive)"}, {"measurement": "GI50", "setting": "HCT-116", "value": "> 100 µM (inactive)"}, {"measurement": "GI50", "setting": "SW-620", "value": "> 100 µM (inactive)"}, {"measurement": "GI50", "setting": "SF-295", "value": "51.1 µM (inactive)"}, {"measurement": "GI50", "setting": "OVCAR-4", "value": "> 100 µM (inactive)"}, {"measurement": "GI50", "setting": "NCI-H226", "value": "61.4 µM (inactive)"}, {"measurement": "GI50", "setting": "SNB-75", "value": "21.9 µM (inactive)"}, {"measurement": "GI50", "setting": "SK-MEL-2", "value": "99.8 µM (inactive)"}, {"measurement": "GI50", "setting": "CCRF-CEM", "value": "> 100 µM (inactive)"}, {"measurement": "GI50", "setting": "UACC-257", "value": "> 100 µM (inactive)"}, {"measurement": "GI50", "setting": "MDA-N", "value": "> 100 µM (inactive)"}, {"measurement": "GI50", "setting": "COLO 205", "value": "80 µM (inactive)"}, {"measurement": "GI50", "setting": "SN12C", "value": "> 100 µM (inactive)"}, {"measurement": "GI50", "setting": "A549", "value": "> 100 µM (inactive)"}, {"measurement": "GI50", "setting": "M14", "value": "> 100 µM (inactive)"}, {"measurement": "GI50", "setting": "UACC-62", "value": "> 100 µM (inactive)"}, {"measurement": "GI50", "setting": "NCI-H522", "value": "> 100 µM (inactive)"}, {"measurement": "GI50", "setting": "SK-OV-3", "value": "> 100 µM (inactive)"}, {"measurement": "GI50", "setting": "Hs-578T", "value": "> 100 µM (inactive)"}, {"measurement": "GI50", "setting": "HOP-62", "value": "> 100 µM (inactive)"}]}]}
